Reference: US20100099698A1, “Compositions for Improving Skin Conditions Comprising Matrine or Its Oxidized Derivatives” (Biospectrum Inc., priority 2007, published 2010)

Experiments:
B16 mouse melanoma cells = test: Inhibition of melanin production in melanoma cells; type: cell-based; details: 72 h, 100 μM, 3 days, read-out: Inhibitory rate of melanin production (%)
Procedure: After measuring the inhibition of melanin production by matrine and oxymatrine using B16 mouse melanoma cells (Korean Cell Line Bank), the measurement was compared with that for the inhibition of melanin production by arbutin, known as a melanin production inhibitor.
B16 mouse melanoma cells F10 (Korean Cell Line Bank) were seeded into each well of a 6-well plate (1×10^5 cells/well) in DMEM (Dulbecco's modified Eagle's media) containing 10% FBS (fetal bovine serum) and the cells were cultured to about more than 80% confluence by incubating in a CO2 incubator under conditions of 37° C. and 5.0% CO2. After cultivation, the medium was removed and samples were replaced in medium diluted at suitable concentration, followed by incubating for 3 days under conditions of 37° C. and 5.0% CO2. […] The cells removing medium were washed with PBS (phosphate buffer saline) and treated with trypsin to collect cells. Number of the collected cells was calculated using hematocytometer (Tiefe Depth Profondeur 0.100 mm, Paul Marienfeld GmbH & Co. KG, D.E), centrifuged at 5,000 to 10,000 rpm for 10 min and the supernatant was eliminated, thereby obtaining pellets. This cell pellets were dried at 60° C., 100 μl of 1M NaOH containing 10% DMSO was added to thereto, and intracellular melanin was obtained in incubator at 60° C. Then, the cell solution was measured for absorbance at 490 nm using microplate reader (Bio-Tek ELx8081U, U.S) and the amount of melanin per cell constant number was estimated.

tyrosinase = biological target: T1, tyrosinase (Mus musculus, UniProt P11344); test: Inhibition of intracellular tyrosinase activity in melanoma cells; type: cell-based, Murine; details: B16-F1; 100 μM, 3 days, B-16 F1 cells; read-out: Inhibitory rate of intracellular tyrosinase activity (%)
T1 construct: This cell pellets were lysated using lysis buffer, centrifuged at 12,000 rpm for 10 min and the supernatant was collected; endogenous in cells; host or cells: B16 F1 mouse melanoma cells (Korean Cell Line Bank)
T1 sequence (P11344 19-533): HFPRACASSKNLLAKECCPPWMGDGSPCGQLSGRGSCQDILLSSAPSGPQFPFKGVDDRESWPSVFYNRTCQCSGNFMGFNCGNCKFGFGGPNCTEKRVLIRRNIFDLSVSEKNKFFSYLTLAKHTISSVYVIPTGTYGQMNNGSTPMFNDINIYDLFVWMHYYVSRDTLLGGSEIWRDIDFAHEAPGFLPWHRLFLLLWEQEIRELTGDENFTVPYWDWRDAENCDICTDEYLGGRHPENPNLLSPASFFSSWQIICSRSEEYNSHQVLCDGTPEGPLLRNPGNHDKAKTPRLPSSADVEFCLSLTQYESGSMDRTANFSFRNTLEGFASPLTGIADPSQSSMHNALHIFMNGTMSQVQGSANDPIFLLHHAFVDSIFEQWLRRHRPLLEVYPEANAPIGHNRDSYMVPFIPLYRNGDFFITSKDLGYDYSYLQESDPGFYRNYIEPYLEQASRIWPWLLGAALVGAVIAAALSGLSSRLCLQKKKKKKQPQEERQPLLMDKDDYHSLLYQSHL
Procedure: After measuring the inhibition of melanin production by matrine and oxymatrine using B16 mouse melanoma cells (Korean Cell Line Bank), the measurement was compared with that for the inhibition of intracellular tyrosinase activities by arbutin, known as a melanin production inhibitor.
Murine melanoma (B-16 F1) cells were seeded into each well of a 6-well plate (1×10^5 cells/well) in DMEM containing 10% FBS (fetal bovine serum) and the cells were cultured to about more than 80% adherence by incubating in a CO2 incubator under conditions of 37° C. and 5.0% CO2. After cultivation, the medium was removed and samples were replaced in medium diluted at suitable concentration, followed by incubating for 3 days under conditions of 37° C. and 5.0% CO2. […] The cells removing medium were washed with PBS (phosphate buffer saline) and treated with trypsin to collect cells. Number of the collected cells was calculated using hematocytometer, centrifuged at 5,000 to 10,000 rpm for 10 min and the supernatant was eliminated, thereby obtaining pellets. This cell pellets were lysated using lysis buffer, centrifuged at 12,000 rpm for 10 min and the supernatant was collected. Then, the cell solution was measured for absorbance at 492 nm using microplate reader and the activity of tyrosinase per cell constant number was estimated.

pigmentation of skin = test: Skin whitening of UV-induced pigmentation, chromameter L* value; type: in vivo, brown guinea pigs; details: 1.0 %, topical once or twice a day for 50 days, UV-pigmented abdominal skin
Procedure: A whitening effect of matrine and oxymatrine was measured using brown guinea pigs (Charles River Laboratories, Inc.), known to increase its pigmentation upon exposure to ultraviolet light, like in humans. To cause pigmentation in the brown guinea pig by ultraviolet (UV), aluminum foil with square windows of 3×3 cm^2 was adhered to hair-removed abdominal skin of brown guinea pig, and then UV light was irradiated thereon with a SE lamp (wavelength 290-320 nm, Toshiba) (total irradiation energy=1350 mJ/cm^2). After UV irradiation, the aluminum foil was removed and samples (matrine, oxymatrine or albutin) were applied as the following method. […] From the maximum, samples were applied. Applications performed once or twice a day for 50 days. […] The control with only the solvent was applied to another site. Occurrence of cumulative irritation also was examined. The degree of pigmentation of skin was determined using a chromameter (CR2002, MINOLTA, JP) to estimate the effects of applied samples. L*a*b* colorimetric system was used to classify color and L* value was used as standard in the present invention. The L* value was corrected using white board standard and was measured more than five times at one site, repeatedly. Pigmentation was evenly distributed. Skin color differences (ΔL*) between application initial point and application terminal point were obtained and then using these values, their effects of the applied samples were estimated. ΔL*=L* value at […] after application-L* value at application initial day. Equation 1 ΔL* values were obtained both at sample application site and control application site and compared, whereby the effects of the whitening substances can be estimated.

inhibition at 100 µM (tyrosinase): 29%
SMILES: OC[C@H]1O[C@@H](Oc2ccc(O)cc2)[C@H](O)[C@@H](O)[C@@H]1O [Albutin, arbutin, reference compound]
inhibition at 100 µM (B16 mouse melanoma cells): 26%
Whitening effects (ΔL) (pigmentation of skin): 0.49
